Measured values published in US11317626B2, “Forchlorfenuron mixtures and uses thereof” (Valent BioSciences LLC, priority 2018, dated 2022).

Tests used:
Format in all cases: in vivo
[1] = tested on: Flame seedless grape vines; experiment: Example 3: bud break on spurs of field-grown Flame seedless grape vines; conditions: 41 days post application
Protocol: (§1) To determine if the mixtures provided unexpected results, the observed combined efficacy (“OCE”) was divided by the expected combined efficacy (“ECE”) wherein the expected ECE is calculated by the Abbott method: ECE=A+B−(AB/100), • wherein ECE is the expected combined efficacy and in which A and B are the speed of bud break relative to control, the number of buds broken per plant relative to control, shoot length relative to control or shoot weight relative to control given by the single active ingredients. If the ratio between the OCE of the mixture and the ECE of the mixture is greater than 1, then greater than expected interactions are present in the mixture. (Gisi, Synergistic Interaction of Fungicides in Mixtures, The American Phytopathological Society, 86:11, 1273-1279,1996). Results
To assess the ability of mixtures of the invention to promote and synchronize bud break, these mixtures were applied to field-grown Flame seedless grape vines in Thermal, Calif., and examined for bud break (initiation of growth) and subsequent shoot development. Forchlorfenuron, Dormex (50% HC), 15-0-0 (Erger®) and 17-0-0 fertilizers (CAN17), and mixtures thereof were each applied individually or sequentially (co-applied) to the separate spurs of Flame seedless grape vines. Plants were evaluated for bud break at 41 days after treatment. Results of these evaluations can be seen below in Tables 11 and 12.

[2] = tested on: Prunus (stone fruit) plants; experiment: Example 5: bud break and shoot growth of Prunus (stone fruit) plants in greenhouse; conditions: for Fresh Weight at Harvest, FW: combined new shoot fresh weight, harvest at 28 days; for 50% BB: days after treatment to 50% bud break
Protocol: as §1
(§2) To assess the ability of mixtures of the invention to promote and synchronize bud break, these mixtures were applied to Prunus (stone fruit) plants in the greenhouse and examined for bud break (initiation of growth) and subsequent shoot development. Forchlorfenuron, Dormex (50% HC), 15-0-0 (Erger®) and 17-0-0 fertilizers (CAN17), and mixtures thereof were each applied individually or sequentially (co-applied) to the shoots of Prunus plants. Plants were evaluated for bud break at 28 days after treatment.

Malus (apple) rootstocks = experiment: Example 4: bud break and shoot growth of Malus (apple) rootstocks; conditions: for Fresh Weight at Harvest: combined new shoot growth; for Fresh Weight at Harvest / Average Number of Broken Buds Per Malus Plant at Harvest / Fresh Weight per Bud at Harvest / Average Number of Broken Nodes Per Centimeter of Shoot at Harvest: harvest at 28 days; for Average Number of Broken Nodes Per Centimeter of Shoot at Harvest: rootstocks pruned to 25 centimeters
Protocol: as §1
as §2, with “field-grown Malus (apple) rootstocks” for “Prunus (stone fruit) plants in the greenhouse”, “potted Malus rootstocks that were pruned to a height of 25 centimeters.” for “Prunus plants.”

Concord grape vines = experiment: Example 2: Concord grape vines greenhouse, forchlorfenuron and 17-0-0 fertilizer (CAN17) study; conditions: for Fresh Weight at Harvest: combined shoot fresh weight, 52 days after planting; for 50% BB: days after treatment to 50% bud break; for Average Number of Broken Nodes Per Plant at Harvest: harvest 52 days after planting
Text: To assess the ability of mixtures of the invention to promote and synchronize bud break these mixtures were applied to Concord grape vines and examined for bud break (initiation of growth) and subsequent shoot development. Specifically, dormant bare-rooted Concord grape vines were planted in pots containing Pro-Mix® BX potting soil (Pro-Mix is a registered trademark of and available from Premier Horticulture Ltd.) and pruned to five nodes on a single shoot of one-year-old wood. Nodes are regions on the shoot where leaves arise from the shoot and buds are present at the axis of the shoot:leaf interface. The bud found at the shoot:leaf interface develops into the vines new shoot growth. Aqueous solutions of forchlorfenuron, HC, 15-0-0 fertilizer, 17-0-0 fertilizer, and mixtures thereof were each applied individually or sequentially or co-applied to the first-year wood of separate Concord grape vines. […] Percent bud break is determined by the number of plants that have at least one bud broken divided by the total number of plants per treatment times 100. […] New shoot growth is the growth arising from the dormant buds not including the woody growth that was planted and gave rise to the new growth.
as §1
The experiment from Example 1 was repeated with varying quantities of forchlorfenuron and fertilizers in a greenhouse experiment.

Which “Broken Buds per Spur (OCE)” value ([1]; listed as CPPU 300 ppm) does the source give for O=C(Nc1ccccc1)Nc1ccnc(Cl)c1 [CPPU, N-(2-Chloro-4-pyridyl)-N′-phenylurea] here?
Its value is 0.00.

And the “Percentage of Spurs With At Least One Bud Broken (OCE)” value (from here on “Percentage”) ([1]; listed as CPPU 300 ppm)?
The value was 0%.

What about the “Broken Buds per Spur (OCE)” value ([1]; listed as CPPU 600 ppm) of the same compound?
The value was 0.03.

And the “Percentage” value ([1]; listed as CPPU 600 ppm)?
Its value is 3%.

And the “Broken Buds per Spur (OCE)” value ([1]; listed as CPPU 1000 ppm)?
The value was 0.00.

And the “Percentage” value ([1]; listed as CPPU 1000 ppm)?
Its value is 0%.

What about the “Fresh Weight at Harvest, FW” value ([2]; listed as CPPU 300 ppm) of the same compound?
Its value is 1.34 grams.

What about the “Fresh Weight at Harvest, FW” value ([2]; listed as CPPU 600 ppm) of the same compound?
Its value is 4.91 grams.

What about the “50% BB” value ([2]; listed as CPPU 300 ppm) of the same compound?
The value was 14 days.

What about the “50% BB” value ([2]; listed as CPPU 600 ppm) of the same compound?
Its value is 10 days.

And the “Fresh Weight at Harvest” value (Malus (apple) rootstocks; listed as CPPU 300 ppm)?
The value was 6.98 grams.

And the “Fresh Weight at Harvest” value (Malus (apple) rootstocks; listed as CPPU 600 ppm)?
The value was 5.65 grams.

What about the “50% BB” value (Malus (apple) rootstocks; days after treatment to 50% bud break) of the same compound?
Its value is 12 days.

What about the “Average Number of Broken Buds Per Malus Plant at Harvest” value (Malus (apple) rootstocks; listed as CPPU 300 ppm) of the same compound?
The value was 7.00.

And the “Fresh Weight per Bud at Harvest” value (Malus (apple) rootstocks; listed as CPPU 300 ppm)?
Its value is 0.88 grams.

And the “Average Number of Broken Buds Per Malus Plant at Harvest” value (Malus (apple) rootstocks; listed as CPPU 600 ppm)?
Its value is 8.25.

And the “Fresh Weight per Bud at Harvest” value (Malus (apple) rootstocks; listed as CPPU 600 ppm)?
The value was 0.71 grams.

What about the “Average Number of Broken Nodes Per Centimeter of Shoot at Harvest” value (Malus (apple) rootstocks; listed as CPPU 300 ppm) of the same compound?
The value was 0.28.

What about the “Average Number of Broken Nodes Per Centimeter of Shoot at Harvest” value (Malus (apple) rootstocks; listed as CPPU 600 ppm) of the same compound?
Its value is 0.33.

What about the “50% BB OCE” value (Malus (apple) rootstocks; observed efficacy, relative to control) of the same compound?
The value was 2.

What about the “Fresh Weight at Harvest” value (Concord grape vines; listed as CPPU 300 ppm) of the same compound?
Its value is 14.30 grams.

What about the “Fresh Weight at Harvest” value (Concord grape vines; listed as CPPU 600 ppm) of the same compound?
The value was 15.10 grams.

And the “Fresh Weight at Harvest” value (Concord grape vines; listed as CPPU 1000 ppm)?
Its value is 11.33 grams.

What about the “50% BB” value (Concord grape vines; listed as CPPU 300 ppm) of the same compound?
The value was 31 days.

And the “50% BB” value (Concord grape vines; listed as CPPU 600 ppm)?
Its value is 35 days.

And the “50% BB” value (Concord grape vines; listed as CPPU 1000 ppm)?
The value was 38 days.

And the “Average Number of Broken Nodes Per Plant at Harvest” value (Concord grape vines; listed as CPPU 300 ppm)?
Its value is 1.86.

What about the “Average Number of Broken Nodes Per Plant at Harvest” value (Concord grape vines; listed as CPPU 600 ppm) of the same compound?
Its value is 2.00.

What about the “Average Number of Broken Nodes Per Plant at Harvest” value (Concord grape vines; listed as CPPU 1000 ppm) of the same compound?
Its value is 1.80.
